We go through one molecule from patent US20260337661A1, “BIOMARKERS OF THE INTEGRATED STRESS RESPONSE AND USES THEREOF” (Calico Life Sciences LLC, priority 2023, published 2026).

For one assay, the system named is ISR signature genes. The experiment in a line: Gene expression of the ISR signature in cerebellum and spinal cord of VWM mice treated with 2BAct. Type of assay: in vivo, mouse. The settings on record: 30 mg/kg in food pellets, four months. The method, then: (§1) FIGS. 2A and 2B depict gene expression of the ISR signature and GDF15 in the cerebellum (FIG. 2A) and spinal cord (FIG. 2B) of VWM mice and WT mice following 4 months of treatment with 30 mg/kg 2BAct in food pellets or control chow. Samples were also collected after a drug washout period of 2 months.
(§2) In this example, a VWMD mouse model harboring a R191H mutation in eIF2B was used.
(§3) VWM mice and WT mice were treated with 2BAct at 30 mg/kg for four months in food pellets. Subsequently, expressions of ISR signature genes and GDF15 in the cerebellum were determined.

For assay [1], the system named is GDF15. The experiment in a line: GDF15 protein in astrocyte-derived exosomes (ADE) and neuron-derived exosomes (NDE) in plasma of VWM mice (immunoassay). Type of assay: in vivo, mouse. As for the experimental part: GDF15 protein was quantified in astrocyte-derived exosomes (ADEs) or neuron-derived exosomes (NDEs) in plasma using immunoassay. ADEs and NDEs were captured with anti-GLAST antibody and anti-SNAP25 antibody, respectively. GLAST is an astrocyte specific cell-surface protein; SNAP25 is highly expressed on neuronal membrane. The detection of GDF15 was performed by incubation with a specific anti-GDF15 antibody followed by an anti-mouse IgG conjugated to Horseradish peroxidase.

The test system of assay [2] is ISR signature genes, including Atf5, Eif4ebp1 and Trib3. The settings on record: previously shown; cited from earlier work.
Assay [3] concerns GDF15. The experiment in a line: GDF15 mRNA levels in the CNS (cerebellum, spinal cord) of VWM mice treated with 2BAct. The settings on record: cerebellum and spinal cord, FIGS. 2C and 2D. Type of assay: in vivo, mouse. The method, then:
as §1
FIG. 2C and FIG. 2D show GDF15 mRNA levels determined in cerebellum (FIG. 2C) and spinal cord (FIG. 2D) in WT mice, VWM mice, and VWM mice treated with 2BAct for 4 months and 2 months after cessation of 2BAct treatment. *p<0.05, **p<0.01, ***p<0.001 by Mann Whitney.
as §2, §3

The conditions of assay [4]: previously shown; cited from earlier work.
Assay [5] has as its system GDF15. The experiment in a line: GDF15 protein levels in CSF and plasma of VWM mice treated with 2BAct. Type of assay: in vivo, mouse. As for the experimental part: FIG. 2E and FIG. 2F show GDF15 protein levels determined in CSF (FIG. 2E) and plasma (FIG. 2F) in WT mice, VWM mice, and VWM mice treated with 2BAct for 4 months and 2 months after cessation of 2BAct treatment. *p<0.05, **p<0.01, ***p<0.001 by Mann Whitney.
as §2, §3

Turning to `O=C(COc1ccc(Cl)c(F)c1)NC12CC(NC(=O)c3cnc(C(F)F)cn3)(C1)C2` [Compound 2BAct], the “ISR gene expression signature in the cerebellum” value with ISR signature genes (FIG. 2A) is “inhibited the ISR gene expression signature”. The “ISR gene expression signature in the spinal cord” value in the assay on ISR signature genes (FIG. 2B) is listed as “inhibited the ISR gene expression signature”. Also, the “GDF15 expression in plasma ADE” value in the assay on GDF15 [1] (30 mg/kg for 10 days, FIG. 7A) is “suppressed GDF15 expression in plasma ADE and NDE to the level present in WT mice”. Also, in the assay on GDF15 [1] (30 mg/kg for 10 days, FIG. 7B), the “GDF15 expression in plasma NDE” value is “suppressed GDF15 expression in plasma ADE and NDE to the level present in WT mice”. In addition, the “downmodulation of GDF15 expression on VWM ADE” value in the assay with GDF15 [1] (astrocyte derived exosomes, FIG. 7A) was determined as 2.7 fold. The “downmodulation of GDF15 expression on VWM NDE” value with GDF15 [1] (neuron derived exosomes, FIG. 7B) worked out at 1.7 fold. Also, the “ISR signature genes, including Atf5, Eif4ebp1 and Trib3, in the brain” value in assay [2] is “suppress the ISR signature genes”. Further, the “GDF15 mRNA levels in the CNS following treatment” value in the assay with GDF15 [3] (30 mg/kg in food pellets, four months) was “markedly reduced”. In addition, in the assay with GDF15 [3] (2 months after cessation of 4-month treatment), the “GDF15 mRNA levels in the CNS after cessation of treatment” value is recorded as “rebounded to pre-treatment levels”. Besides, the motor deficit entry in assay [4] was “corrected motor deficit”. Also, the “CSF GDF15 levels after treatment” value with GDF15 [5] (30 mg/kg in food pellets, 4-month treatment, FIG. 2E) is recorded as “suppressed”. The “plasma GDF15” value in the assay on GDF15 [5] (30 mg/kg in food pellets, four months, FIG. 2F) was “did not affect plasma GDF15”. Further, the “CSF GDF15 levels following drug washout” value in the assay with GDF15 [5] (2 months of drug washout after 4-month treatment, FIG. 2E) is “returned to pre-dose baseline levels”.
